What was measured:
Design in all cases: species or system human
[1] = test system: plasma autoantibodies (anti-GPIIIa) of chronic ITP patients; experiment: Solid-phase radioimmunoassay: plasma autoantibody binding to well-bound synthetic GPIIIa peptide
Protocol: Microtiter wells were activated with 100 μl of 0.1% glutaraldehyde in coating buffer (0.1M NaHCO3, pH 8.3) for 1 hr at room temperature (RT). Wells were washed twice with PBS and then incubated for 2 hr at PT with 1 μg of each synthetic peptide in 100 μl of coating buffer. After 6 washes with 0.05% Tween-20 (Sigma Chemical Co., St. Louis, MO) in PBS (wash buffer), each well was incubated with 200 μl of 2% BSA in wash buffer for 1 hr at RT. The wells were washed 6 times, followed by the addition to triplicate wells of 100 μl of plasma diluted 1/10 in wash buffer. After incubation for 1 hr and 6 washes, 100 μl of radiolabeled anti-human igG in wash buffer (100,000 cpm) was added to each well. After a final 1 hr incubation and 6 washes, well-bound radioactivity was determined. Data were expressed as a ratio: Mean cpm bound to GPIIIa peptide divided by mean cpm bound to control peptide (P10).
Nine synthetic peptides corresponding to different sequences within platelet GPIIIa (P1-P9, Table 1) were used as antigenic targets. A synthetic peptide of human HLA Class I heavy chain was used as a control (P10). Plasma from 13 patients with chronic ITP was studied. […] These 2 hydrophilic overlapping peptides are located at the carboxyterminal region of GPIIIa and together comprise the portion of the molecule considered to be the cytoplasmic domain. Plasma for patients ITP-1 and ITP-2 bound to peptide 9 with mean ratios of 32.4 (3 studies) and 5.8 (2 studies), respectively, while patient ITP-3 plasma bound to both peptides 8 and 9 (mean ratios of 13.3 and 3.3, respectively; 3 studies) and patients ITP-4 and ITP-5 bound to peptide 8 (mean ratios of 3.6, 2 studies and 9.4, 2 studies).

[2] = test system: autoantibody binding to washed platelets; experiment: Inhibition of autoantibody binding to washed platelets by peptide
Protocol: Washed platelets (3×10^7) were incubated with patient plasma (ITP-1-15 μl, ITP-2-60 μl, ITP-3-30 μl) in a total volume of 200 μl citrate buffer for 2 hrs at room temperature, followed by 4 washes. After resuspension in 300 μl of citrate buffer, platelets were lysed with 33 μl of 10% Triton X-100 in citrate buffer. Next, 100 μl of lysate was added to wells coated with murine anti-GPIIb. Bound antibody was detected with labeled anti-human IgG as described.
(§1) To evaluate the ability of washed platelets, affinity-purified GPIIb/IIIa or synthetic peptides to block autoantibody binding, serial dilutions of platelets, GPIIb/IIIa or synthetic peptides (maximum addition: 10^10 platelets, 200 μg GPIIb/IIIa or 10 μg of peptide per 100 μl plasma, respectively) were incubated overnight at 4° C. with the patient's plasma. The preincubated plasma (100 μl 1/10 dilution) was added to replicate wells containing either GPIIb/IIIa from platelet lysate, affinity-purified GPIIb/IIIa or synthetic peptide, and antibody binding to each well was evaluated as describe above. Data were expressed as a percent of the binding of untreated plasma (% inhibition).
To evaluate the contribution of these antipeptide antibodies to the patients' total plasma anti-GPIIb/IIIa activity, the ITP plasmas were preincubated with serial dilutions of the appropriate peptide (8 or 9) and then tested in 4 different assays. In the first, the pretreated plasma was incubated with platelets. After washing and lysis, the GPIIb/IIIa complexes were captured on microtiter wells by monoclonal antibody. In the other 3 assays, pretreated plasma was added to microtiter wells coated directly with either peptide or affinity-purified GPIIb/IIIa (Aff-GPIIb/IIIa) or to microtiter wells with GPIIb/IIIa from plate let lysate immobilized by monoclonal antibody (Moab-GPIIb/IIIa). Antibody binding was detected in all assays with labeled antihuman IgG.

[3] = test system: antipeptide antibody binding to GPIIIa peptides; experiment: Inhibition of antipeptide antibody binding to GPIIIa peptides by platelets or purified GPIIb/IIIa; conditions: plasma ITP-1, -2, -3 (1/10 dilution) preincubated with inhibitor
Protocol: as §1
Three of the peptide-positive plasma samples (ITP-1, -2 and -3) were tested further; additional testing of ITP-4 and ITP-5 was not possible due to insufficient plasma.

Substance | mean binding ratio (cpm bound to GPIIIa peptide / cpm bound to control peptide P10) ([1]; plasma of patient ITP-1, 1/10 dilution, 3 studies) | mean binding ratio (cpm bound to GPIIIa peptide / cpm bound to control peptide P10) ([1]; plasma of patient ITP-2, 1/10 dilution, 2 studies) | mean binding ratio (cpm bound to GPIIIa peptide / cpm bound to control peptide P10) ([1]; plasma of patient ITP-3, 1/10 dilution, 3 studies) | inhibition of autoantibody binding to washed platelets ([2]; plasma ITP-1 preincubated with peptide, 3 studies (range)) | inhibition of autoantibody binding to washed platelets ([2]; plasma ITP-2 preincubated with peptide, 2 studies) [%] | inhibition of antibody binding to both platelets and GPIIb/IIIa from platelet lysates ([2]; plasma from ITP-1 and ITP-2 preincubated with peptide, summary in discussion) [%] | inhibition of antibody reactivity of plasma with the GPIIIa peptides [3]
ANNPLYKEATSTFTNITYRDT (ANNPLYDEATSTFTNITYRDT) [P9] | 32.4 | 5.8 | 3.3 | 87.8-98.0 | 94.0 | > 80 | 
affinity-purified GPIIb/IIIa: GPIIb/IIIa complex eluted from an anti-GPIIb monoclonal antibody (2A9) column loaded with platelet extract |  |  |  |  |  |  | completely inhibited

From patent US5177188A, “Methods and compositions for diagnosing chronic immune thrombocytopenic purpura” (The Scripps Research Institute, priority 1990, dated 1993)
